Targets include LCK (Homo sapiens, UniProt P06239); FLT3 (Homo sapiens, UniProt P36888); PIM1 (Homo sapiens, UniProt P11309); PDGFR BETA (Homo sapiens, UniProt P09619); SGK3 (Homo sapiens, UniProt Q96BR1).
What all share (experiment): Kinase selectivity panel
What all share (type): biochemical
What all share (details): [ATP] = 1 mM

Drawing on article PMC6013247, “Preclinical characterization of INCB053914, a novel pan-PIM kinase inhibitor, alone and in combination with anticancer agents, in models of hematologic malignancies” (PLoS ONE, 2018), this text covers IC50 for one compound.

Sequence of FLT3 (P36888 27-993): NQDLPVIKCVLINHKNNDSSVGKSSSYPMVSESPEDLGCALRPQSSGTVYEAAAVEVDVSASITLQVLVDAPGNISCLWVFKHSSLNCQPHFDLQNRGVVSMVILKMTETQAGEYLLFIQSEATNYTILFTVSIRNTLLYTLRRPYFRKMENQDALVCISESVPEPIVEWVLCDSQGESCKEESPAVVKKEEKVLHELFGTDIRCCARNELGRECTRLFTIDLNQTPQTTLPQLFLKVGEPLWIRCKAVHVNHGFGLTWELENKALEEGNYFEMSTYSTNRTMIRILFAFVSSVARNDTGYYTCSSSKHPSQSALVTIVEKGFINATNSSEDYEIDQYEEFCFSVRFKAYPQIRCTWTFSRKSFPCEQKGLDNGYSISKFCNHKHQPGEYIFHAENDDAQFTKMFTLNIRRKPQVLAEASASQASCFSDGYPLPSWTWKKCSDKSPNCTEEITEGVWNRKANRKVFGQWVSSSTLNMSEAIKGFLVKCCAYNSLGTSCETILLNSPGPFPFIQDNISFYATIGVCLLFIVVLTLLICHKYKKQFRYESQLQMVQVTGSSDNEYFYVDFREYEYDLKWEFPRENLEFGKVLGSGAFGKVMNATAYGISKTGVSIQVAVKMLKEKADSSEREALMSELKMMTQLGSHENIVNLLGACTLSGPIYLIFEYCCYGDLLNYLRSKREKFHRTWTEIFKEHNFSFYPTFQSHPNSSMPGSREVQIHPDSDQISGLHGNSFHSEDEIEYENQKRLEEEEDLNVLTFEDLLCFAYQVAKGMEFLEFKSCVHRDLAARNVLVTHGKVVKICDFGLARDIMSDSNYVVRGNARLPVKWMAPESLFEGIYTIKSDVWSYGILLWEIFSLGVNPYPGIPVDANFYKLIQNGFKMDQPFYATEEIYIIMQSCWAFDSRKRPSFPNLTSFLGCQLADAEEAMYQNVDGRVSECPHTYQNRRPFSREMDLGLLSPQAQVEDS
Sequence of SGK3 (Q96BR1 whole entry, species assumed): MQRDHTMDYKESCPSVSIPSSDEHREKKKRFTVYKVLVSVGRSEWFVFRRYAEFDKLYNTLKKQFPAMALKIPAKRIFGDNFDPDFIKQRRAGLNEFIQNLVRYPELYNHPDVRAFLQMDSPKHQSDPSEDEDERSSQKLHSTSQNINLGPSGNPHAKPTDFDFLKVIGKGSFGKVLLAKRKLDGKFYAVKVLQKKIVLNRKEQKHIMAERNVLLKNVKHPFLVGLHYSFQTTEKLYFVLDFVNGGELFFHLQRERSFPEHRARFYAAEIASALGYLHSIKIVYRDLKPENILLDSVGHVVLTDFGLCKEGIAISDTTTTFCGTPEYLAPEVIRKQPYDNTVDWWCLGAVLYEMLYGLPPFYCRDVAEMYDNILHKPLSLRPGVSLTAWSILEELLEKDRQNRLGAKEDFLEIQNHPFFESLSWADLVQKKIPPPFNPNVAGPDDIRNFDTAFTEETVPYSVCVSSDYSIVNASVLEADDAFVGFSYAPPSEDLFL
Sequence of PDGFR BETA (P09619 33-1106): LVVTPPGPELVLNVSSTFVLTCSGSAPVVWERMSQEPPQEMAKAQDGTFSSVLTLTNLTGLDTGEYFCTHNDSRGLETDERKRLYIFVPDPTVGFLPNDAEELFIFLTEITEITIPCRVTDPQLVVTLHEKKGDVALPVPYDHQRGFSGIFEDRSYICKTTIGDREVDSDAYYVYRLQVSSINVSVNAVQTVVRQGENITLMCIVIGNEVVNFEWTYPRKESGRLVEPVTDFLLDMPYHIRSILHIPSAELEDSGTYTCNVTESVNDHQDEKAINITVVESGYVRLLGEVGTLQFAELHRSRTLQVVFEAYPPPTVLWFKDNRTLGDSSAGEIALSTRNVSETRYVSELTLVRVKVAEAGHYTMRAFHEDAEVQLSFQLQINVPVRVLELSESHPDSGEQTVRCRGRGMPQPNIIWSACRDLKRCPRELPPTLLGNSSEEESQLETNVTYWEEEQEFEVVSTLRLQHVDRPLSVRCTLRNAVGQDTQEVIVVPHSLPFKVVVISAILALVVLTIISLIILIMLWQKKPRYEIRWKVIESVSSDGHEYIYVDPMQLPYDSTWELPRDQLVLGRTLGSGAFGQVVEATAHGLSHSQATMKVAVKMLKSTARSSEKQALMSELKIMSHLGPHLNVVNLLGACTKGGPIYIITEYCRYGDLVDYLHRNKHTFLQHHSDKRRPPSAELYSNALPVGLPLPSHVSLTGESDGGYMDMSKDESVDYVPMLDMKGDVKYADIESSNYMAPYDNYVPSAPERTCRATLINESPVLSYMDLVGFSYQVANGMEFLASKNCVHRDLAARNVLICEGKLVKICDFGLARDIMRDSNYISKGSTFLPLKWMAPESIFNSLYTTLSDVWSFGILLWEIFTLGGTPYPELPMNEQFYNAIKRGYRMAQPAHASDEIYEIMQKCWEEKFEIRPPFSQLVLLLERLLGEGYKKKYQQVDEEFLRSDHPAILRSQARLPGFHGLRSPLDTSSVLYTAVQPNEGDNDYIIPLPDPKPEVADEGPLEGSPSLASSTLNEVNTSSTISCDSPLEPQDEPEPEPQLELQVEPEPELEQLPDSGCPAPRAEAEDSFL
Sequence of LCK (P06239 whole entry): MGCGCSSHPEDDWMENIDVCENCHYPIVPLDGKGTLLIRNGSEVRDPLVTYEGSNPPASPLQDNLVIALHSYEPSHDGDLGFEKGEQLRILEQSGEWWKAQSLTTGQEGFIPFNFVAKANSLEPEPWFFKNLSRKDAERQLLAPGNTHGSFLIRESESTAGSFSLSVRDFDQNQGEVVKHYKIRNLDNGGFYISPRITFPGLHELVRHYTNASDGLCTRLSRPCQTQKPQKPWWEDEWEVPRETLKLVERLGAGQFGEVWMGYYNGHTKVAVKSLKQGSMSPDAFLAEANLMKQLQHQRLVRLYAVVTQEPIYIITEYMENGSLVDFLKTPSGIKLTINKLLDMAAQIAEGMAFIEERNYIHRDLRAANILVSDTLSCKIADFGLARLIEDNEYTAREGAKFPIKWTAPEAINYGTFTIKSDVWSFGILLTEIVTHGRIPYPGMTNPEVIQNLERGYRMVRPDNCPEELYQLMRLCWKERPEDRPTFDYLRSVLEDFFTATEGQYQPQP
Sequence of PIM1 (P11309 whole entry): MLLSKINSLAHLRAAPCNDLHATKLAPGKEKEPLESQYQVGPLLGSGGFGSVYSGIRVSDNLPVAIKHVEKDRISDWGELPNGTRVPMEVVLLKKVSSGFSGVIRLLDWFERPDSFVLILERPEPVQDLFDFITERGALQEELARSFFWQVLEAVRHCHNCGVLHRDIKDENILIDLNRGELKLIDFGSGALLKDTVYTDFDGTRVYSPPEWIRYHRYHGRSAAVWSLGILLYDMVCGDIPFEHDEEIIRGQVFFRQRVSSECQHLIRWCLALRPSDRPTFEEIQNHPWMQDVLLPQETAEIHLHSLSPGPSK

Take `C[C@H]1CN(c2c(NC(=O)c3ccc(F)c(-c4c(F)cccc4F)n3)cnc3c2CC[C@H]3O)C[C@@H](N)[C@@H]1O.O=P(O)(O)O` [INCB053914, N-((R)-4-((3R,4R,5S)-3-amino-4-hydroxy-5-methylpiperidin-1-yl)-7-hydroxy-6,7-dihydro-5H-cyclopenta[b]pyridin-3-yl)-6-(2,6-difluorophenyl)-5-fluoropicolinamide phosphate]: the IC50 (commonly the point on the concentration scale where inhibition reaches its midpoint) on LCK was > 20 µM; at FLT3 it was > 20 µM; against PIM1, < 0.012 µM; against PDGFR BETA it was > 20 µM; against SGK3, > 20 µM.
